How the values were obtained:
Toxicity, mouse, s.c. = format: in vivo; conditions: in vivo, sc; for LD50: mouse; for selectivity ratio: mouse s.c., LD50 / writhing ED50, read-out: Index LD50/ED50
mouse [1] = experiment: Analgesia, writhing test, mouse s.c.; format: in vivo; conditions: for ED50: sc, mouse s.c.
Text: (§1) The compounds of the present invention, that is, those embraced by formula I above and their non-toxic, pharmacologically acceptable acid addition salts, have useful pharmacodynamic properties. More particularly, they exert a therapeutically useful effect upon the central nervous system in warm-blooded animals, such as mice, especially analgesic and morphine-antagonistic activities, which were confirmed in the writhing test and the Haffner test. Pursuant to prevailing teachings, this agonistic/antagonistic activity spectrum points toward the absence of or a very low abuse potential.

mouse [2] = experiment: Morphine-antagonism, mouse (Nalorphine = 1); format: in vivo; conditions: for Morphine-antagonism (Nalorphine = 1): mouse, relative potency
Text: as §1

mouse [3] = experiment: Toxicity, mouse, s.c.; format: in vivo
[4] = tested on: withdrawn morphine dependent monkeys; experiment: Suppression of abstinence symptoms in withdrawn morphine dependent monkeys; format: in vivo, monkey
[5] = tested on: withdrawn morphine dependent rats; experiment: Suppression of abstinence symptoms in withdrawn morphine dependent rats; format: in vivo, rat
Text: as §1

SMILES | LD50 (Toxicity, mouse, s.c.) | selectivity ratio (Toxicity, mouse, s.c.) | ED50 (mouse [1]) | antagonistic component (mouse [2]; morphine antagonism, in words) | Morphine-antagonism (Nalorphine = 1) (mouse [2]) | therapeutic index compared with 2-furfuryl-2'-hydroxy-5,9-α-dimethyl-6,7-benzomorphan (mouse [3]; vs. 2-furfuryl compound) | therapeutic index compared to pentazocine (mouse [3]; vs. pentazocine) | analgesic activity compared with 2-furfuryl-2'-hydroxy-5,9-α-dimethyl-6,7-benzomorphan (mouse [1]; vs. 2-furfuryl compound) | suppression of abstinence symptoms [4] | suppression of abstinence symptoms [5]
Cc1ccoc1CN1CC[C@@]2(C)c3cc(O)ccc3C[C@@H]1[C@@H]2C (relative stereo) [2-(3-methyl-furfuryl)-2'-hydroxy-5,9-α-dimethyl-6,7-benzomorphan] | 305 mg/kg | 508 | 0.6 mg/kg | does not have the desired antagonistic component | inactive |  |  |  |  | 
C[C@H]1[C@H]2Cc3ccc(O)cc3[C@]1(C)CCN2Cc1ccco1 (relative stereo) [2-furfuryl-2'-hydroxy-5,9-α-dimethyl-6,7-benzomorphan] | 292 mg/kg | 16 | 18 mg/kg |  | 1 |  |  |  |  | 
C[C@H]1[C@H]2Cc3ccc(O)cc3[C@]1(C)CCN2Cc1ccno1 (relative stereo) [Example 1, 5,9-α-Dimethyl-2'-hydroxy-2-(5-isoxazolyl-methyl)-6,7-benzomorphan] | 1080 mg/kg | 1800 | 0.6 mg/kg |  | 0.1 | significantly superior | far superior | significantly superior | not capable of suppressing the abstinence symptoms | not capable of suppressing the abstinence symptoms
CC(C)=CCN1CCC2(C)c3cc(O)ccc3CC1C2C (stereo not shown) [Pentazocine] | 220 mg/kg | 157 | 1.4 mg/kg |  | 0.025 |  |  |  |  | 

From patent publication US4133888A, “Analgesic and morphine antagonistic 2'-hydroxy-2-(5-isoxazolyl-methyl)-6,7-benzomorphans and salts thereof” (Boehringer Ingelheim GmbH, priority 1977, dated 1979)
